Key:
[1] = tested on: patients with seasonal allergic rhinitis (SAR); assay: MP 428 study: Adult Rhinoconjunctivitis Quality of Life Questionnaire outcomes, change from baseline; type: in vivo, human; details: Day 14/ET; Intent-to-Treat Population
[2] = tested on: patients with seasonal allergic rhinitis (SAR); assay: MP 428 study: adverse events, Safety Population; type: in vivo, human
Method: A two-week, randomized, double-blind study, which evaluated the effects of the co-administration of ASTELIN® (azelastine hydrochloride (HCl)) and FLONASE® (fluticasone propionate) compared to either product alone in patients with seasonal allergic rhinitis (SAR) was conducted during the 2006 Texas mountain cedar season. After a 5-day placebo lead-in period, 151 patients with moderate-to-severe allergic rhinitis symptoms were randomized to either: (1) (49 total patients) ASTELIN® (azelastine hydrochloride (HCl)) plus placebo saline nasal spray 2 sprays per nostril, 15 minutes apart, twice daily (AM & PM); (2) (50 total patients) FLONASE® (fluticasone propionate) plus placebo saline nasal spray, 2 sprays per nostril, 15 minutes apart, once daily (AM) and two sessions of placebo saline nasal spray, 2 sprays per nostril, 15 minutes apart (PM); or (3) (52 total patients) the co-administration of ASTELIN® (azelastine hydrochloride (HCl)) 2 sprays per nostril plus FLONASE® (fluticasone propionate) 2 sprays per nostril (AM), 15 minutes apart, and ASTELIN® (azelastine hydrochloride (HCl)) 2 sprays per nostril plus placebo saline nasal spray, 15 minutes apart, (PM) for a 2-week double-blind treatment period.
The most common adverse events (AEs) were bitter taste (8.2% in ASTELIN® (azelastine hydrochloride (HCl)) group, 2.0% in FLONASE® (fluticasone propionate) group, 13.5% in co-administration group) and headache (4.1% in ASTELIN® (azelastine hydrochloride (HCl)) group, 4.0% in FLONASE® (fluticasone propionate) group, 5.8% in co-administration group). No other AE was reported by more than one patient in any treatment group. There were no discontinuations due to AEs.

[3] = Possibly related to study drug, Safety Population
[4] = Probably related to study drug, Safety Population

CCC(=O)O[C@]1(C(=O)SCF)[C@H](C)C[C@H]2[C@@H]3C[C@H](F)C4=CC(=O)C=C[C@]4(C)[C@@]3(F)[C@@H](O)C[C@@]21C [Fluticasone, fluticasone propionate] was tested, and the “RQLQ Change From Baseline in Activity, LS Mean” value [1] was −1.52, the “RQLQ Change From Baseline in Activity, Mean” value [1] was −1.50 and the “RQLQ Change From Baseline in Activity, Median” value [1] was −1.33. The “RQLQ Change From Baseline in Emotional, LS Mean” value [1] was −1.42, the “RQLQ Change From Baseline in Emotional, Mean” value [1] was −1.50 and the “RQLQ Change From Baseline in Emotional, Median” value [1] was −1.25. For the same compound, the “RQLQ Change From Baseline in Eye Symptoms, LS Mean” value [1] was −1.51, the “RQLQ Change From Baseline in Eye Symptoms, Mean” value [1] was −1.53 and the “RQLQ Change From Baseline in Eye Symptoms, Median” value [1] was −1.75. For the same compound, the “RQLQ Change From Baseline in Nasal Symptoms, LS Mean” value [1] was −1.72, the “RQLQ Change From Baseline in Nasal Symptoms, Mean” value [1] was −1.74 and the “RQLQ Change From Baseline in Nasal Symptoms, Median” value [1] was −1.50. The “RQLQ Change From Baseline in Non-nose/eye Symptoms, LS Mean” value [1] was −1.19, the “RQLQ Change From Baseline in Non-nose/eye Symptoms, Mean” value [1] was −1.23 and the “RQLQ Change From Baseline in Non-nose/eye Symptoms, Median” value [1] was −1.14. For the same compound, the “RQLQ Change From Baseline in Overall Score, LS Mean” value [1] was −1.47, the “RQLQ Change From Baseline in Overall Score, Mean” value [1] was −1.49 and the “RQLQ Change From Baseline in Overall Score, Median” value [1] was −1.37. For the same compound, the “RQLQ Change From Baseline in Practical Problems, LS Mean” value [1] was −1.74, the “RQLQ Change From Baseline in Practical Problems, Mean” value [1] was −1.76 and the “RQLQ Change From Baseline in Practical Problems, Median” value [1] was −1.67. The “RQLQ Change From Baseline in Sleep, LS Mean” value [1] was −1.23, the “RQLQ Change From Baseline in Sleep, Mean” value [1] was −1.26 and the “RQLQ Change From Baseline in Sleep, Median” value [1] was −1.33. For the same compound, the “Primary Reason for Discontinuation From Study: Adverse Event” value ([2]; All Randomized Patients) was 0 (0.0) N (%), the “Number (%) Patients With Treatment-Related AEs by Maximum Severity” value ([2]; Mild) was 3 (6.0) Number (%) and the “Number (%) Patients With Treatment-Related AEs by Maximum Severity” value ([2]; Moderate) was 1 (2.0) Number (%). The “Treatment-Related Adverse Events: Any Adverse Event” value [2, 3] was 4 (8.0) No. of Patients (%), the “Treatment-Related Adverse Events: DRY MOUTH” value [2, 3] was 1 (2.0) No. of Patients (%) and the “Treatment-Related Adverse Events: DYSGEUSIA” value [2, 3] was 1 (2.0) No. of Patients (%). For the same compound, the “Treatment-Related Adverse Events: EPISTAXIS” value [2, 3] was 0 (0.0) No. of Patients (%), the “Treatment-Related Adverse Events: GASTROINTESTINAL DISORDERS, Any Preferred Term” value [2, 3] was 3 (6.0) No. of Patients (%) and the “Treatment-Related Adverse Events: HEADACHE” value [2, 3] was 1 (2.0) No. of Patients (%). For the same compound, the “Treatment-Related Adverse Events: NASAL DISCOMFORT” value [2, 3] was 0 (0.0) No. of Patients (%), the “Treatment-Related Adverse Events: NERVOUS SYSTEM DISORDERS, Any Preferred Term” value [2, 3] was 1 (2.0) No. of Patients (%) and the “Treatment-Related Adverse Events: RESPIRATORY, THORACIC AND MEDIASTINAL DISORDERS, Any Preferred Term” value [2, 3] was 0 (0.0) No. of Patients (%). The “Treatment-Related Adverse Events: STOMACH DISCOMFORT” value [2, 3] was 1 (2.0) No. of Patients (%), the “Treatment-Related Adverse Events: Any Adverse Event” value [2, 4] was 0 (0.0) No. of Patients (%) and the “Treatment-Related Adverse Events: DRY MOUTH” value [2, 4] was 0 (0.0) No. of Patients (%). For the same compound, the “Treatment-Related Adverse Events: DYSGEUSIA” value [2, 4] was 0 (0.0) No. of Patients (%), the “Treatment-Related Adverse Events: EPISTAXIS” value [2, 4] was 0 (0.0) No. of Patients (%) and the “Treatment-Related Adverse Events: GASTROINTESTINAL DISORDERS, Any Preferred Term” value [2, 4] was 0 (0.0) No. of Patients (%). For the same compound, the “Treatment-Related Adverse Events: HEADACHE” value [2, 4] was 0 (0.0) No. of Patients (%), the “Treatment-Related Adverse Events: NASAL DISCOMFORT” value [2, 4] was 0 (0.0) No. of Patients (%) and the “Treatment-Related Adverse Events: NERVOUS SYSTEM DISORDERS, Any Preferred Term” value [2, 4] was 0 (0.0) No. of Patients (%). The “Treatment-Related Adverse Events: RESPIRATORY, THORACIC AND MEDIASTINAL DISORDERS, Any Preferred Term” value [2, 4] was 0 (0.0) No. of Patients (%), the “Treatment-Related Adverse Events: STOMACH DISCOMFORT” value [2, 4] was 0 (0.0) No. of Patients (%) and the “Number (%) Patients With Any AEs: All Treatment-Related AEs” value ([2]; Safety Population) was 4 (8.0) Number (%). The “Number (%) of Deaths” value ([2]; Safety Population) was 0 (0.0) Number (%), the “Number (%) of Patients With Serious AEs” value ([2]; Safety Population) was 0 (0.0) Number (%) and the “Number of Adverse Events Reported: All Treatment-Emergent AEs” value ([2]; Safety Population) was 5. For the same compound, the “Number of Adverse Events Reported: All Treatment-Related AEs” value ([2]; Safety Population) was 4, the “Number (%) Patients With Treatment-Related AEs by Maximum Severity” value ([2]; Severe) was 0 (0.0) Number (%) and the “Treatment-Emergent AE: Any Adverse Event” value ([2]; Total) was 5 (10.0) No. of Patients (%). The “Treatment-Emergent AE: DRY MOUTH” value ([2]; Total) was 1 (2.0) No. of Patients (%), the “Treatment-Emergent AE: DYSGEUSIA” value ([2]; Total) was 1 (2.0) No. of Patients (%) and the “Treatment-Emergent AE: EAR AND LABYRINTH DISORDERS, Any Preferred Term” value ([2]; Total) was 0 (0.0) No. of Patients (%). For the same compound, the “Treatment-Emergent AE: EAR PAIN” value ([2]; Total) was 0 (0.0) No. of Patients (%), the “Treatment-Emergent AE: EPISTAXIS” value ([2]; Total) was 0 (0.0) No. of Patients (%) and the “Treatment-Emergent AE: GASTROINTESTINAL DISORDERS, Any Preferred Term” value ([2]; Total) was 3 (6.0) No. of Patients (%). The “Treatment-Emergent AE: HEADACHE” value ([2]; Total) was 2 (4.0) No. of Patients (%), the “Treatment-Emergent AE: MUSCULOSKELETAL AND CONNECTIVE TISSUE DISORDERS, Any Preferred Term” value ([2]; Total) was 0 (0.0) No. of Patients (%) and the “Treatment-Emergent AE: MYALGIA” value ([2]; Total) was 0 (0.0) No. of Patients (%). The “Treatment-Emergent AE: NASAL DISCOMFORT” value ([2]; Total) was 0 (0.0) No. of Patients (%).

Reference: patent US8758816B2, “Compositions comprising azelastine and methods of use thereof” (priority 2004, dated 2014)
